# Biological target: PIK3CG (human) (UniProt P48736)
# Experiment: Assessment of PIK3CG Kinase Activity
# Sequence of PIK3CG (human) (P48736 whole entry, looked up): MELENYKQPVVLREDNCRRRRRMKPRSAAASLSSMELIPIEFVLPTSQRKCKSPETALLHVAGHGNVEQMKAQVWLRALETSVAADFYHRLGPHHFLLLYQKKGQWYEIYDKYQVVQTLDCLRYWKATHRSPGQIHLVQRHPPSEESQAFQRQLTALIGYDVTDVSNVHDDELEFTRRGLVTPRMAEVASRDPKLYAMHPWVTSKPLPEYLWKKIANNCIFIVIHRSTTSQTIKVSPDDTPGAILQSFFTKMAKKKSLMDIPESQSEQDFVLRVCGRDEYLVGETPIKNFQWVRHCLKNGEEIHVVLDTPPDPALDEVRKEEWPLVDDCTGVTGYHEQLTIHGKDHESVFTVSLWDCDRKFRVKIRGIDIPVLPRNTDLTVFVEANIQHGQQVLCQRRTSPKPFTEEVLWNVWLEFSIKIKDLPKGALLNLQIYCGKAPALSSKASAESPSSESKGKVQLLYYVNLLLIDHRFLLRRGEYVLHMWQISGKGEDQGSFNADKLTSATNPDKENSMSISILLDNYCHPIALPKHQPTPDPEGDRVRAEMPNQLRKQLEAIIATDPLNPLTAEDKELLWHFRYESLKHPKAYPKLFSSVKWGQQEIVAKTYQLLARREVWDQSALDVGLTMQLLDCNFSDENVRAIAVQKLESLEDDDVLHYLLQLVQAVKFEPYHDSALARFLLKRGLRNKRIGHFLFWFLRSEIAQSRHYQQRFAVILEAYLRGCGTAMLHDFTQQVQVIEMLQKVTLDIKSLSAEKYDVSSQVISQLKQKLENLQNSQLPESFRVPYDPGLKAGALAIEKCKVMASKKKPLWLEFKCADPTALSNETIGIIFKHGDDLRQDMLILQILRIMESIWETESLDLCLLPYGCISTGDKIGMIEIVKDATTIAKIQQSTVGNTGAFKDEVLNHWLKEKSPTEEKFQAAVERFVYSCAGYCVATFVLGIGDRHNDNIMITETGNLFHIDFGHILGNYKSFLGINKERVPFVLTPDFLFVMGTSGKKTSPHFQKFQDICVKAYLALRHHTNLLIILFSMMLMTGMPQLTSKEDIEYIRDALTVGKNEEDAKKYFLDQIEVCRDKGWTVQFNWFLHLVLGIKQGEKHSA
row,SMILES,IC50
1,Cn1ccc(CNC(=O)Nc2nc3c(s2)-c2nc(-c4ccccc4Cl)ncc2CC3)n1,< 800 nM
2,O=C(Nc1nc2c(s1)-c1nc(-c3ccccc3Cl)ncc1CC2)NC1CCC(N2CCNC2=O)CC1 (configuration not stated),< 800 nM
3,CCCn1ccc(CNC(=O)Nc2nc3c(s2)-c2nc(-c4ccccc4Cl)ncc2CC3)n1,< 800 nM
4,CN(C)c1cccc(CNC(=O)Nc2nc3c(s2)-c2nc(-c4ccccc4Cl)ncc2CC3)c1,< 800 nM
5,O=C(NCc1cccc(N2CCCC2=O)c1)Nc1nc2c(s1)-c1nc(-c3ccccc3Cl)ncc1CC2,< 800 nM
6,CCc1noc(CCNC(=O)Nc2nc3c(s2)-c2nc(-c4ccccc4Cl)ncc2CC3)n1,< 800 nM
7,O=C(NCc1cccc(C(=O)N2CCOCC2)c1)Nc1nc2c(s1)-c1nc(-c3ccccc3Cl)ncc1CC2,< 800 nM
8,O=C(Nc1nc2c(s1)-c1nc(-c3ccccc3Cl)ncc1CC2)N1CCCC(c2nc3ccccc3[nH]2)C1 (configuration not stated),< 800 nM
9,COCCNC(=O)CCNC(=O)Nc1nc2c(s1)-c1nc(-c3ccccc3Cl)ncc1CC2,< 800 nM
10,CCc1csc(CCNC(=O)Nc2nc3c(s2)-c2nc(-c4ccccc4F)ncc2CC3)n1,< 800 nM
11,CC(C)OCCNC(=O)Nc1nc2c(s1)-c1nc(-c3ccccc3Cl)ncc1CC2,< 800 nM
12,O=C(NCc1cc(C2CC2)n[nH]1)Nc1nc2c(s1)-c1nc(-c3ccccc3Br)ncc1CC2,< 800 nM
13,CC(C)c1cccc(CNC(=O)Nc2nc3c(s2)-c2nc(-c4ccccc4Cl)ncc2CC3)c1,< 800 nM
14,CCN(CC)C(=O)N[C@H]1CCN(C(=O)Nc2nc3c(s2)-c2nc(-c4ccccc4Cl)ncc2CC3)C1,< 800 nM
15,CC(C)(C)OC(=O)N[C@H]1CC[C@H](CNC(=O)Nc2nc3c(s2)-c2nc(-c4ccccc4Cl)ncc2CC3)CC1,< 800 nM
16,O=C(NCc1ccco1)Nc1nc2c(s1)-c1nc(-c3ccccc3Cl)ncc1CC2,< 800 nM
17,CN(C)C(=O)c1cccc(CNC(=O)Nc2nc3c(s2)-c2nc(-c4ccccc4Cl)ncc2CC3)c1,< 800 nM
18,O=C1CCC(NC(=O)Nc2nc3c(s2)-c2nc(-c4ccccc4Cl)ncc2CC3)C(c2ccccc2)N1 (configuration not stated),< 800 nM
19,CC(C)CNC(=O)CCNC(=O)Nc1nc2c(s1)-c1nc(-c3ccccc3Cl)ncc1CC2,< 800 nM
20,CC(C)(C)CC(=O)N[C@@H]1CCN(C(=O)Nc2nc3c(s2)-c2nc(-c4ccccc4Cl)ncc2CC3)C1,< 800 nM
21,CC(NC(=O)Nc1nc2c(s1)-c1nc(-c3ccccc3Cl)ncc1CC2)c1cccc(NC(=O)OC(C)(C)C)c1 (configuration not stated),< 800 nM
22,CC(C)CNC(=O)Nc1nc2c(s1)-c1nc(-c3ccccc3Cl)ncc1CC2,< 800 nM
23,CC(C)C(=O)N[C@H]1CCN(C(=O)Nc2nc3c(s2)-c2nc(-c4ccccc4Cl)ncc2CC3)C1,< 800 nM
24,O=C(NCCN1CCCC1)Nc1nc2c(s1)-c1nc(-c3ccccc3Cl)ncc1CC2,< 800 nM

# Other lines, results leading:
row,IC50,SMILES
1,< 800 nM,O=C(Nc1nc2c(s1)-c1nc(-c3ccccc3Cl)ncc1CC2)Nc1ccccc1CN1CCNC1=O
2,< 800 nM,O=C(Nc1nc2c(s1)-c1nc(-c3ccccc3Cl)ncc1CC2)N1CC[C@@H](NC(=O)N2CCCC2)C1
3,< 800 nM,O=C(Nc1nc2c(s1)-c1nc(-c3ccccc3Cl)ncc1CC2)NC1CC1
4,< 800 nM,O=C(NCc1ccccc1-n1cccn1)Nc1nc2c(s1)-c1nc(-c3ccccc3Cl)ncc1CC2
5,< 800 nM,O=C(N[C@H]1CCN(C(=O)Nc2nc3c(s2)-c2nc(-c4ccccc4Cl)ncc2CC3)C1)C(F)F
6,< 800 nM,CNC(=O)Nc1nc2c(s1)-c1nc(-c3ccccc3F)ncc1CC2
7,< 800 nM,CCNC(=O)CCNC(=O)Nc1nc2c(s1)-c1nc(-c3ccccc3Cl)ncc1CC2
8,< 800 nM,CCc1csc(CCNC(=O)Nc2nc3c(s2)-c2nc(-c4ccccc4Br)ncc2CC3)n1
9,< 800 nM,CC(C)CNC(=O)N[C@H]1CCN(C(=O)Nc2nc3c(s2)-c2nc(-c4ccccc4Cl)ncc2CC3)C1
10,< 800 nM,CN1CCN(Cc2cccc(NC(=O)Nc3nc4c(s3)-c3nc(-c5ccccc5Cl)ncc3CC4)c2)CC1
11,< 800 nM,O=C(CCNC(=O)Nc1nc2c(s1)-c1nc(-c3ccccc3Cl)ncc1CC2)NC1CC1
12,< 800 nM,CNC(=O)Nc1nc2c(s1)-c1nc(-c3ccccc3Cl)ncc1CC2
13,< 800 nM,CC(C)CC(=O)N[C@@H]1CCN(C(=O)Nc2nc3c(s2)-c2nc(-c4ccccc4Cl)ncc2CC3)C1

# From the Kinase Knowledgebase extract (Sharma et al. 2016)
